Where two headings read alike, the source gives them in different places.
Legend:
[1] = Time lag between oral administration and maximal plasma levels, eletriptan in combination with sodium bicarbonate; format: in vivo; settings: administered in combination with sodium bicarbonate, in some cases
Source text: The advantage to the patient arising from the correspondingly swift amelioration of symptoms is self-evident.

[2] = 30 mg eletriptan, fasted, cited from earlier work
[3] = α-polymorphic hydrobromide salt, oral, cited from earlier work
[4] = Tablet hardness relative to tablets made from a placebo blend; format: physicochemical; settings: eletriptan at 2.5% w/w of tablet
Protocol: A mixture of eletriptan hydrobromide (24.24 mg, equivalent to 20 mg of eletriptan free base), sodium bicarbonate (USP, 630 mg) and microcrystalline cellulose (Avicel PH 102, Ph. Eur., 137.76 mg) were blended for 10 minutes, passed through a […] screen and re-blended for a further 10 minutes. Screened intragranular magnesium stearate (Ph. Eur., 8 mg) was added and the mixture was lubricated for 5 minutes. […] The blend was made into a tablet by direct compression. The tablets so produced had excellent weight uniformity and friability.

SMILES: CN1CCC[C@@H]1Cc1c[nH]c2ccc(CCS(=O)(=O)c3ccccc3)cc12 [eletriptan, 3-{[1-methylpyrrolidin-2(R)-yl]methyl}-5-(2-phenylsulfonylethyl)-1H-indole]
- time lag between oral administration and maximal plasma levels of drug [1]: 30 min
- Tmax ([2]; migraine-free patients): 1.3 ± 1.3 h
- Tmax ([2]; patients with migraine): 2.8 ± 2.1 h
- Tmax (time between administering a standard tablet and maximal plasma concentrations) ([3]; fasted subjects): about 1 hour
- Tmax (time between administering a standard tablet and maximal plasma concentrations) ([3]; fed subjects): up to 4 hours
- increase in tablet hardness [4]: 0.7 kp

— patent US20040204475A1, “Pharmaceutical combination” (priority 2003, published 2004)
